Test results taken from ChEMBL document CHEMBL1201862, “PubChem BioAssay data set” (2004).
The source made the active and inactive calls.

Experiments:
Keap1/Nrf2 = Keap1/Nrf2 (Homo sapiens, UniProt Q14145); assay: disruptors of Keap1 binding to Nrf2 peptide – biochemical, fluorescence polarization, cherry-picked samples, dose response (AID 588683)
Protein RecA = molecular target: T1, Protein RecA (Mycobacterium tuberculosis, UniProt P9WHJ3); assay: Fluorescence Cell-Free Homogeneous Dose Retest to Identify Inhibitors of RecA-Intein Splicing Activity. [Related pubchem assays (depositor defined):AID2097, AID2223, AID489010, AID492950]; type: functional
T1 sequence (P9WHJ3 whole entry): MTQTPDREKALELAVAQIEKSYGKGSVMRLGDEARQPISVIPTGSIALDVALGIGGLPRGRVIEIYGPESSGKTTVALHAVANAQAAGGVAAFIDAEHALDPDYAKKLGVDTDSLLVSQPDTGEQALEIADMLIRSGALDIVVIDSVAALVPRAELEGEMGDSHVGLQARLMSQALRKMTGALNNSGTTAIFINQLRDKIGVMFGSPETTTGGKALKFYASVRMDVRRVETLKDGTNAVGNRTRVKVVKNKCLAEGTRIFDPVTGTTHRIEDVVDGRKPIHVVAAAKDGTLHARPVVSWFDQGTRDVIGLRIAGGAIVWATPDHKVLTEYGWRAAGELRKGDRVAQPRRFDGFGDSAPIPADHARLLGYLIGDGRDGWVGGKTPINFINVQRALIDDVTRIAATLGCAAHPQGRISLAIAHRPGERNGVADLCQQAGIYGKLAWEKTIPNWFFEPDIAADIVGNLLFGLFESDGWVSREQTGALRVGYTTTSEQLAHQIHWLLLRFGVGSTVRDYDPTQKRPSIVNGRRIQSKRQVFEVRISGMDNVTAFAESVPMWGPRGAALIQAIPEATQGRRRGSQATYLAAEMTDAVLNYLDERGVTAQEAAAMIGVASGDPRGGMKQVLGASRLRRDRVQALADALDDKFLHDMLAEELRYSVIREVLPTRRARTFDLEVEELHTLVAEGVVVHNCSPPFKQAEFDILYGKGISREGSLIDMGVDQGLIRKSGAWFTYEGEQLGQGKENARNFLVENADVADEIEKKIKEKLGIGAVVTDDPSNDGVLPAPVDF

[1] = molecular target: T2, Kappa-type opioid receptor (Homo sapiens, UniProt P41145); type: functional
T2 sequence (P41145 whole entry): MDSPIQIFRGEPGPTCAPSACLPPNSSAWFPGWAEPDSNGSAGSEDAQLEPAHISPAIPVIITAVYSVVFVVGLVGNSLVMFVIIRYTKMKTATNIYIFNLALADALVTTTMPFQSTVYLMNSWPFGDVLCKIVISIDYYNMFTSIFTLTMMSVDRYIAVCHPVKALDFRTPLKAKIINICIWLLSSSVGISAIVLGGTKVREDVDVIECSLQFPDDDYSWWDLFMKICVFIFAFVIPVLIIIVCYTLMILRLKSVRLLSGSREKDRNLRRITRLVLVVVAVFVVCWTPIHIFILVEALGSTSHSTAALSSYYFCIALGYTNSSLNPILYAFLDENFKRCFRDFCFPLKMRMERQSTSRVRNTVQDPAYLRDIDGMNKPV

[2] = molecular target: T3, Type-1 angiotensin II receptor (Homo sapiens, UniProt P30556); assay: antagonism of angiotensin II type 1 receptor – cell-based, uHTS hits, selectivity assay for APJ receptor antagonist project, dose response (AID 463214); type: functional;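 note: antagonist potency against angiotensin II stimulated AT1 response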
T3 sequence (P30556 whole entry): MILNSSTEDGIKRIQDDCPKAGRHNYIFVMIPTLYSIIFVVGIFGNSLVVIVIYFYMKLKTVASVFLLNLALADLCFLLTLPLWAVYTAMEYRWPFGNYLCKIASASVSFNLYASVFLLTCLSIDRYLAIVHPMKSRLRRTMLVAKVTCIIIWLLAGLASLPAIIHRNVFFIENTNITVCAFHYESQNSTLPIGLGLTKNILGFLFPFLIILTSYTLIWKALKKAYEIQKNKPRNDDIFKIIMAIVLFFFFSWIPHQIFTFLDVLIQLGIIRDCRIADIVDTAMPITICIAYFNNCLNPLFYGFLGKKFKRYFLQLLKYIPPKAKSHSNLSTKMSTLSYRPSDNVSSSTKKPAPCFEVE

BJ [3] = assay: cells; type: functional, cell-based; conditions: Homo sapiens
[4] = molecular target: T4, Delta-type opioid receptor (Homo sapiens, UniProt P41143); assay: HTS Image-Based Screen for Agonists of the DOR Receptor. [Related pubchem assays (depositor defined):AID1777, AID1786, AID2133]; type: functional
T4 sequence (P41143 whole entry): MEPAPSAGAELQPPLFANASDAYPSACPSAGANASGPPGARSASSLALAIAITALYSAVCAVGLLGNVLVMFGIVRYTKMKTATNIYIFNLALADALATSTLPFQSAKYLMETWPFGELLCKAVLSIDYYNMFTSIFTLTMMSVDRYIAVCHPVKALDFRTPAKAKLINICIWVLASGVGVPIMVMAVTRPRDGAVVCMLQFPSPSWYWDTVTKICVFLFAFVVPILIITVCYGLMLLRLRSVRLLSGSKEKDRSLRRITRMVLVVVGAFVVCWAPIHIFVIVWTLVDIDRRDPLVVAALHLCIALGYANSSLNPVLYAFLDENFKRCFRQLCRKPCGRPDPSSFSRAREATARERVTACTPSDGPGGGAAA

[5] = molecular target: T5, Replicative DNA helicase DnaB (Mycobacterium tuberculosis, UniProt P9WMR3); assay: DnaB intein splicing inhibitors, dose response, biochemical, cell-free fluorescence (AID 449749); type: functional
T5 sequence (P9WMR3 whole entry): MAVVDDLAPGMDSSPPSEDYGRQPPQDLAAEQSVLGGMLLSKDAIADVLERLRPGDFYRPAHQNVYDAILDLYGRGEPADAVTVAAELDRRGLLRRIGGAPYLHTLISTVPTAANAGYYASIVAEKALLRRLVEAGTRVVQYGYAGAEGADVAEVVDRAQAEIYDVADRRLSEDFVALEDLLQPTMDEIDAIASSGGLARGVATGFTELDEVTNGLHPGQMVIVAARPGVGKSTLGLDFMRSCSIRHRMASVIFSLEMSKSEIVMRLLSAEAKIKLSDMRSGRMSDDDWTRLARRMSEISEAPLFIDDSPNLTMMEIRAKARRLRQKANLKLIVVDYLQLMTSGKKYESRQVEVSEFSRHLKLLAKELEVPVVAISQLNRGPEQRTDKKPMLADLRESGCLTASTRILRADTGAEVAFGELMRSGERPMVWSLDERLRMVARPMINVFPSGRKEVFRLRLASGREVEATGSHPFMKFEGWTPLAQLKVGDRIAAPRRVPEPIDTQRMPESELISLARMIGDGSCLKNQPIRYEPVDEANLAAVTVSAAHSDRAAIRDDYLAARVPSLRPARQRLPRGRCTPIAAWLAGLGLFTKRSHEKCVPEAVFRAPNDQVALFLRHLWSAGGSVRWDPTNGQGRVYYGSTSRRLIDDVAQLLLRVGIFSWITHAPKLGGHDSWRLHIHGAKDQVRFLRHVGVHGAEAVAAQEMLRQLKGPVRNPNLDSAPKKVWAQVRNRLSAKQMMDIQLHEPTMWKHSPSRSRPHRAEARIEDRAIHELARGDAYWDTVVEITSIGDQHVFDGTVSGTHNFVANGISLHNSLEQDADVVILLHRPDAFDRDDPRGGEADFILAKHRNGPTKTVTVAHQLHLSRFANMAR

[6] = reduction of Shn3 3'UTR-driven luciferase in osteoblasts – cell-based, Clone20 osteoblasts, firefly luciferase, cherry-picked, dose response (AID 624132); type: functional;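 note: firefly luciferase luminescence from reporter carrying the Shn3 3'UTR in osteoblasts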
INS1 = assay: INS-1E survival protection against cytokine death – cell-based, luminescence, retest, dose response (AID 449756); type: functional; conditions: Rattus norvegicus;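 note: cell death triggered by IL-1 beta plus TNF-alpha plus IFN-gamma mixture; protective hits raise ATP signal compared with cytokine alone wells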
Mu-type opioid receptor = Mu-type opioid receptor (Homo sapiens, UniProt P35372); assay: HTS Image-Based Screen for Agonists of the MOR Receptor. [Related pubchem assays (depositor defined):AID1777, AID1785, AID1786, AID2133]; type: functional;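 note: imaging of beta-arrestin GFP recruitment into spots after receptor activation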
Mu-type opioid receptor, sequence (P35372 whole entry): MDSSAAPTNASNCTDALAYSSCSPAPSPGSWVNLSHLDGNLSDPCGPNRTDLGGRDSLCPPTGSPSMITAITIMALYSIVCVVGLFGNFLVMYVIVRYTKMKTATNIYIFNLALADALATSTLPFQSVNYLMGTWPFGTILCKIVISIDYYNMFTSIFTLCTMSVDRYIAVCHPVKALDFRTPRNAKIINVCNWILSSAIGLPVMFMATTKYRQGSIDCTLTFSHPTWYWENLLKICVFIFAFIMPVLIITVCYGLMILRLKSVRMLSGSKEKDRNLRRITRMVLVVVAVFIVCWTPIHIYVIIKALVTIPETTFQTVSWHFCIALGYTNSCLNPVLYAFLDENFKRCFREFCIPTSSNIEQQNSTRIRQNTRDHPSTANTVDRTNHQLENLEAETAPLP

[7] = alpha-synuclein stem-loop luciferase translation blockers – H4 neuroglioma cells, luminescence, confirmation (AID 1988); type: functional, cell-based
[8] = Luminescence Cell-Based Dose Response HTS to Identify Inhibitors of 5'UTR Stem-Loop Driven Prion Protein mRNA Translation in H4 Neuroglioblastoma Cells. [Related pubchem assays: 1827 (Project Summary), 1813 (Primary HTS)]; type: functional
[9] = general cell-killing toxicity readout – plate reader, dry powder samples, cytotoxicity control for PAX8 inhibitor project, dose response (AID 743021); type: functional, cell-based
[10] = non-specific 3'UTR reporter inhibition in Clone20-Shn3RL – cell-based, Renilla luciferase, cherry-picked, counter-screen for Shn3 inhibitor project, dose response (AID 624133); type: functional
[11] = HEK-293T viability loss after treatment – luminescence, T-cell screen hits, cytotoxicity control for TCR NF-kB inhibitor project, dose response (AID 489026); type: functional, cell-based;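 note: cells exposed to compound about 14 hours before the viability readout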
Paired box protein Pax-8 = Paired box protein Pax-8 (Homo sapiens, UniProt Q06710); assay: PAX8 transcriptional activity inhibition in RMG-I – RMG-I cells, luciferase, cherry-pick, dose response (AID 687027); type: functional, cell-based;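 note: luciferase reporter driven by Pax8 target thyroperoxidase promoter measured by SteadyGlo luminescence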
BJ [12] = assay: BJ-TERT-LT-ST fibroblast viability loss – cell-based, RAS-independent, luminescence, dose response (AID 1935); type: functional; conditions: Homo sapiens;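 note: BJ fibroblasts immortalized with TERT plus LT and ST oncogenes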
BJ [13] = assay: BJ-TERT fibroblast viability loss – cell-based, RAS-independent, luminescence, dose response (AID 1933); type: functional; conditions: Homo sapiens
Beta-galactosidase [14] = molecular target: T6, Beta-galactosidase (Escherichia coli, UniProt Q8VNN2); type: functional
T6 sequence (Q8VNN2 whole entry): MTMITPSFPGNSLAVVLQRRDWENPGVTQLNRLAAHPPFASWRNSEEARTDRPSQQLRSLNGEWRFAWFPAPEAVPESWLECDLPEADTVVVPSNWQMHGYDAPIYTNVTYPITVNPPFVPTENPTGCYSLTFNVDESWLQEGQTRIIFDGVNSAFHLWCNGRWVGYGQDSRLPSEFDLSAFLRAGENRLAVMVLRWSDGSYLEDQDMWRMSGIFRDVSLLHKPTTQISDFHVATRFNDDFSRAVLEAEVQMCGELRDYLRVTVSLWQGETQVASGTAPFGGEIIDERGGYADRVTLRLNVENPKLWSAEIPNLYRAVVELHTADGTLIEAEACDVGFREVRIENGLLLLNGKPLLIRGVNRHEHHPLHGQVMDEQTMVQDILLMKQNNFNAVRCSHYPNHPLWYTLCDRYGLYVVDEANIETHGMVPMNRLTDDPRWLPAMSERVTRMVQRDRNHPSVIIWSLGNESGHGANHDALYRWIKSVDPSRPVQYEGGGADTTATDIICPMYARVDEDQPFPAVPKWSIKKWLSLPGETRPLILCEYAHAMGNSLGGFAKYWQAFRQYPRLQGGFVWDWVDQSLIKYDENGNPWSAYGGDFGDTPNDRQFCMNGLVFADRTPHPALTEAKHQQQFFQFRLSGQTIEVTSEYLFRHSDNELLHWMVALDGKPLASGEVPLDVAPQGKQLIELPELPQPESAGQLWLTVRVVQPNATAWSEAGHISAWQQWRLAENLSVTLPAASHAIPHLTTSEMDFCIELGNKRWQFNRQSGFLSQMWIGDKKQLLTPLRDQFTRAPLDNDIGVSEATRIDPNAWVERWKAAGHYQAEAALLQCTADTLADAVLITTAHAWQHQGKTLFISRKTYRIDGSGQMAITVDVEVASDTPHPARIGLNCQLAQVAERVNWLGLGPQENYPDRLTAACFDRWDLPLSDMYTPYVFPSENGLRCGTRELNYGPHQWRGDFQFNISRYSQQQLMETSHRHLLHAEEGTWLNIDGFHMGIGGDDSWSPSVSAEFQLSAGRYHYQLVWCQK

[15] = luciferase reporter signal suppression in cells – H4 neuroglioma cells, luminescence, dose response (AID 1990); type: functional, cell-based
[16] = molecular target: T2, Kappa-type opioid receptor; type: functional; remark: listed apart in the source
[17] = loss of viability in HepG2 cells – cell-based, CellTiter-Glo, cherry-picked, cytotoxicity control for Shn3 inhibitor project, dose response (AID 624134); type: functional
[18] = DRD fibroblast viability loss – cell-based, non-viral oncogenic, luminescence, dose response (AID 1934); type: functional; conditions: Homo sapiens
cells = type: functional
[19] = molecular target: T4, Delta-type opioid receptor; assay: HTS Image-Based Screen for Antagonists of the DOR Receptor. [Related pubchem assays (depositor defined):AID1777, AID1785, AID1786, AID2133]; type: functional
[20] = THP-1 cell cytotoxicity, dose response, cytotoxicity control for non-replicating M. tuberculosis project (AID 489025); type: functional
Beta-galactosidase [21] = molecular target: T6, Beta-galactosidase; assay: PubChem AID 485352; type: functional
Cytochrome P450 2C9 = Cytochrome P450 2C9 (Homo sapiens, UniProt P11712)
Cytochrome P450 2C9, sequence (P11712 whole entry): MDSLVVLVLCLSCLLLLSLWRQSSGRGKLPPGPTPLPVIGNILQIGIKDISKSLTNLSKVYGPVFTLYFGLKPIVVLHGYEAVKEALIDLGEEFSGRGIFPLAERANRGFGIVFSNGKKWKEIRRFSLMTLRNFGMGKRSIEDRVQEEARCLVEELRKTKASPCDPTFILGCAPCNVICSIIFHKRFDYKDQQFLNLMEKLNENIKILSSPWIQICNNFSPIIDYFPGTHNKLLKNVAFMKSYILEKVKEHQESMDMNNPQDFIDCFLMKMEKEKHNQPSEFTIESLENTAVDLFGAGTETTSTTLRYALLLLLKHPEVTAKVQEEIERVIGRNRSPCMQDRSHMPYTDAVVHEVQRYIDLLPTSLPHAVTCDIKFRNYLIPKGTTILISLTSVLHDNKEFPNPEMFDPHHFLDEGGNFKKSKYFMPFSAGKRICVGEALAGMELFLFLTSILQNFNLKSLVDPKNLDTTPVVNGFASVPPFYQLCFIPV

Cytochrome P450 2D6 = Cytochrome P450 2D6 (Homo sapiens, UniProt P10635);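 note: CYP2D6 member of a cytochrome P450 panel assay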
Cytochrome P450 2D6, sequence (P10635 whole entry): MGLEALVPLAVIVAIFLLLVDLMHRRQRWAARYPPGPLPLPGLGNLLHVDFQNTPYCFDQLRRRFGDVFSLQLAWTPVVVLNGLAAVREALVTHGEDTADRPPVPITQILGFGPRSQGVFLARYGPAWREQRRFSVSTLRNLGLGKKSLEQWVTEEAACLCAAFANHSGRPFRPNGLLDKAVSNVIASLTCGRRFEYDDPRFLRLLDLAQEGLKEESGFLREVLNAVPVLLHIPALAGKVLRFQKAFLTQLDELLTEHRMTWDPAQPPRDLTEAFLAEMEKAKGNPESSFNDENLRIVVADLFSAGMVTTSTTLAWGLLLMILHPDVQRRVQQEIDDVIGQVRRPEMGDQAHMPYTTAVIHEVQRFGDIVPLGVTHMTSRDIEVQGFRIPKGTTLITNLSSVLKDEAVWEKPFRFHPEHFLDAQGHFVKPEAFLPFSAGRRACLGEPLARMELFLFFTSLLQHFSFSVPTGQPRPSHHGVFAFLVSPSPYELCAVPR

[22] = Luminescence Cell-Based Dose Confirmation HTS to Identify Inhibitors of Platelet Dense Granule Release. [Related pubchem assays: 1663 (Primary HTS), 1678 (Summary of Project)]; type: functional
[23] = molecular target: Luciferin 4-monooxygenase (Photinus pyralis, UniProt P08659); assay: inhibition of purified Photinus pyralis luciferase – biochemical, luminescence, dose response (AID 1891)
Luciferin 4-monooxygenase, sequence (P08659 whole entry): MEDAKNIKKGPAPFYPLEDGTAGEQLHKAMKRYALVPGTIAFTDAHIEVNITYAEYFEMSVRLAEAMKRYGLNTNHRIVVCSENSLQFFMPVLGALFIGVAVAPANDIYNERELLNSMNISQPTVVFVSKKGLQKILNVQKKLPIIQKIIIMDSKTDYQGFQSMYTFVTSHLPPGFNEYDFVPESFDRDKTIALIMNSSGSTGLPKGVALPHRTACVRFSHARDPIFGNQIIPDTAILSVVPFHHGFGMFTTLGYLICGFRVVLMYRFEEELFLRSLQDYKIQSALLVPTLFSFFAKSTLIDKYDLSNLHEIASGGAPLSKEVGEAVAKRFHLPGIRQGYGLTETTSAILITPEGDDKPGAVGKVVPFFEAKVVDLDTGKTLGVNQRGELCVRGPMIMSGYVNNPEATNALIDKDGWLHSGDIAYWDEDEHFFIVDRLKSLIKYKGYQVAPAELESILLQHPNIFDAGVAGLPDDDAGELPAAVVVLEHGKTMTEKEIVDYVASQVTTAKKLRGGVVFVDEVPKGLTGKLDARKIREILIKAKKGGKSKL

Cytochrome P450 2C19 = Cytochrome P450 2C19 (Homo sapiens, UniProt P33261); assay: Cytochrome panel assay with activity outcomes. Panel member name: p450-cyp2c19 Compounds with AC50 equal or less than 10 uM are considered active; type: functional; conditions: read-out: AC50

Keap1/Nrf2, sequence (Q16236 whole entry): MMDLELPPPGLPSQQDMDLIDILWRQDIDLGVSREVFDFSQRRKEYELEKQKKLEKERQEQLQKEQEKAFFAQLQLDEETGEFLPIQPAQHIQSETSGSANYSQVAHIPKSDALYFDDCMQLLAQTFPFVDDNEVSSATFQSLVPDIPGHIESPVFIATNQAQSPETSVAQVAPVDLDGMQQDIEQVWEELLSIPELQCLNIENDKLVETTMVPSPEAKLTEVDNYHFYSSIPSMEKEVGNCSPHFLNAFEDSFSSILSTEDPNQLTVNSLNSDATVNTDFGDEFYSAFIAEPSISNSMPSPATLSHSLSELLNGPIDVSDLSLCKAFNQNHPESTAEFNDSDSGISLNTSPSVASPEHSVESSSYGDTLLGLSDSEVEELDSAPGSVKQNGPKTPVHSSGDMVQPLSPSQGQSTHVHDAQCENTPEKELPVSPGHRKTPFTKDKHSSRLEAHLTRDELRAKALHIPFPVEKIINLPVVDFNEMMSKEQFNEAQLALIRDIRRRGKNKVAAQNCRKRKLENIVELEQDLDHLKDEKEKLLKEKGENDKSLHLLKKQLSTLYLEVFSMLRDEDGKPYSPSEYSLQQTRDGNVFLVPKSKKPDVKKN
Keap1/Nrf2, sequence (Q14145 whole entry): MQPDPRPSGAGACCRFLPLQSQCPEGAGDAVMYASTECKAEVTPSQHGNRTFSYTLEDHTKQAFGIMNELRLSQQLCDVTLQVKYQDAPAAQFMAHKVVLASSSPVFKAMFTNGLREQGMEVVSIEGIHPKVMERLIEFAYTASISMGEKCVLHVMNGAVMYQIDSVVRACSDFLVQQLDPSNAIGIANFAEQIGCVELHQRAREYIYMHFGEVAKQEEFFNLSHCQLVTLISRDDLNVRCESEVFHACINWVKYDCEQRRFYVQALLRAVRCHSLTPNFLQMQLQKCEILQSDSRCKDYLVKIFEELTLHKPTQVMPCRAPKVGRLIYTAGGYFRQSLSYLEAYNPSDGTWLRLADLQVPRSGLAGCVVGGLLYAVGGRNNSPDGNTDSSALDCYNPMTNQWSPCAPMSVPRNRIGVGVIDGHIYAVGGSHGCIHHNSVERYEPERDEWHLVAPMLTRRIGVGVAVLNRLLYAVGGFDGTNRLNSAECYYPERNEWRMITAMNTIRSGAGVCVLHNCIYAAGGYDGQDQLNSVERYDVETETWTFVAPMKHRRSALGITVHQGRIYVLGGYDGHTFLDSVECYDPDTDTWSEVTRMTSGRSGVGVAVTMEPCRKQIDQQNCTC

## CCN1C(=O)NC(=O)/C(=C\c2cn(CC(=O)N3CCCCC3)c3ccccc23)C1=O
Keap1/Nrf2
  AC50: 35.9 µM (active)

## CCS(=O)(=O)c1ncc(Cl)c(C(=O)Nc2ccc(S(=O)(=O)N(C)c3ccccc3)cc2)n1
Protein RecA
  EC50: 1 µM (active)
[1]
  IC50: 6.56 µM (active)
[2]
  IC50: 3.56 µM (active)
BJ [3]
  EC50: 6.38 µM (inconclusive)
[4]
  EC50: > 32 µM (inactive)
[5]
  AC50: 1.14 µM (active)
[6]
  AC50: 0.308 µM (active)
INS1
  AC50: 5.7 µM (active)
Mu-type opioid receptor
  EC50: > 32 µM (inactive)
[7]
  EC50: 5.71 µM (active)
[8]
  EC50: 8.51 µM (active)
[9]
  AC50: 21.2 µM (active)
[10]
  AC50: 1.91 µM (active)
[11]
  IC50: 59.5 µM (inactive)
Paired box protein Pax-8
  AC50: 5.12 µM (active)
BJ [12]
  EC50: 5.62 µM (inconclusive)
BJ [13]
  EC50: 0.784 µM (active)
Beta-galactosidase [14]
  EC50: > 31.5 µM (inactive)
[15]
  EC50: > 120 µM (not active)
[16]
  IC50: 4.2 µM
[17]
  AC50: 10.7 µM (active)
[18]
  EC50: 4.16 µM (active)
cells
  IC50: > 50 µM (active)
[19]
  IC50: 9.44 µM (active)
[20]
  CC50: 10.6 µM (active)
Beta-galactosidase [21]
  EC50: > 40 µM (inactive)

## Cc1ccc(NC(=O)c2cc(NC(=O)CCCC(=O)O)ccc2Cl)cc1Cl
Cytochrome P450 2C9
  AC50: 15.8 µM (inconclusive)
Cytochrome P450 2D6
  AC50: inconclusive
[22]
  EC50: > 112 µM (not active)
[23]
  EC50: > 112 µM (not active)
Cytochrome P450 2C19
  AC50: 0.891 µM (inconclusive)
